Source: patent US5488060A, “Substituted thiadiazoles, compositions containing them and their use as antimicrobial and marine antifouling agents” (The Dow Chemical Company, priority 1994, dated 1996)
In brackets after ≈: the same amount, converted by molar mass. Where two headings read alike, the source gives them in different places.

Columns and labels:
Type in all cases: cell-based
[1] = system: Pseudomonas aeruginosa (Pa); assay: Minimum inhibitory concentration (MIC) in nutrient agar, Pseudomonas aeruginosa; conditions: 30° C., 48 hours, read-out: Minimum Inhibitory Concentration, Pa
Outline: (§1)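 Test compound, as a 1% acetone–water solution, was mixed into molten nutrient agar (pH 6.8 or pH 8.2) at 48° C to final levels of 500 down to 1.0 ppm. Plates were dried 24 h, spot-inoculated with 10^8 CFU/mL suspensions of 24-h cultures, and incubated 48 h at 30° C. MIC was the lowest level preventing growth.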

[2] = system: Aureobasidium pullulan (Ap); assay: Minimum inhibitory concentration (MIC) in malt yeast agar, Aureobasidium pullulan
Outline: (§2)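 Agar dilution: test compound from a 1% acetone/water solution was mixed into malt yeast agar (pH 5.5) at 48 °C to final […], 25, 10, 5, 2.5, 1.0 and zero ppm. Plates dried 24 h, were replicator-inoculated with 1:9 saline-diluted suspensions of 7-day 30 °C cultures, and were read after 72 h (fungi) or 48 h (yeast) at 30 °C.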

[3] = system: Salmonella choleraesuis (Se); assay: Minimum inhibitory concentration (MIC) in nutrient agar, Salmonella choleraesuis; conditions: Salmonella enterica
Outline: as §1

Candida albicans (Ca) = assay: Minimum inhibitory concentration (MIC) in malt yeast agar, Candida albicans
Outline: (§3)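 Growth is scored at 30 °C after 72 h for fungi and 48 h for yeast on malt yeast agar (pH 5.5) containing compound at final levels from 500 down to zero ppm. Organisms are grown 7 days at 30 °C, suspended in saline with octylphenoxy polyethoxy ethanol, and diluted 1:9 before replicator inoculation.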

[4] = system: Staphylococcus aureus (Sa); assay: Minimum inhibitory concentration (MIC) in nutrient agar, Staphylococcus aureus
Outline: as §1

Escherichia coli (Ec) = assay: Minimum inhibitory concentration (MIC) in nutrient agar, Escherichia coli
Outline: as §1

[5] = system: Enterobacter aerogenes (Ea); assay: Minimum inhibitory concentration (MIC) in nutrient agar, Enterobacter aerogenes; conditions: Klebsiella aerogenes
Outline: as §1

Aspergillus niger (An) = assay: Minimum inhibitory concentration (MIC) in malt yeast agar, Aspergillus niger
Outline: as §2

Proteus vulgaris (Pv) = assay: Minimum inhibitory concentration (MIC) in nutrient agar, Proteus vulgaris
Outline: as §1

[6] = system: Klebsiella pneumoniae (Kp); assay: Minimum inhibitory concentration (MIC) in nutrient agar, Klebsiella pneumoniae
Outline: as §1

Trichoderma viride (Tv) = assay: Minimum inhibitory concentration (MIC) in malt yeast agar, Trichoderma viride
Outline: as §2

Fusarium oxysporum (Fo) = assay: Minimum inhibitory concentration (MIC) in malt yeast agar, Fusarium oxysporum
Outline: as §2

[7] = system: Penicillium chrysogenum (Pc); assay: Minimum inhibitory concentration (MIC) in malt yeast agar, Penicillium chrysogenum
Outline: as §2

[8] = system: Saccharomyces cerevisiae (Sc); assay: Minimum inhibitory concentration (MIC) in malt yeast agar, Saccharomyces cerevisiae; conditions: pH 5.5, malt yeast agar, 30° C., 48 hours for yeast, read-out: Minimum Inhibitory Concentration, SC
Outline: as §3

[9] = system: Pseudomonas aeruginosa (PRD-10); assay: Minimum inhibitory concentration (MIC) in nutrient agar, Pseudomonas aeruginosa PRD-10
Outline: as §1

Bacillus subtilis (Bs) = assay: Minimum inhibitory concentration (MIC) in nutrient agar, Bacillus subtilis
Outline: as §1

[10] = 48 h, pH 6.8, read-out: Minimum Inhibitory Concentration, SC
[11] = 48 h, pH 8.2, read-out: Minimum Inhibitory Concentration, SC
[12] = pH 5.5, malt yeast agar, 30° C., 48 hours for yeast, read-out: Minimum Inhibitory Concentration, Ca
[13] = 48 h, pH 8.2, read-out: Minimum Inhibitory Concentration, Sa
[14] = pH 6.8, nutrient agar, 30° C., 48 hours, read-out: Minimum Inhibitory Concentration, Sa
[15] = 48 h, pH 6.8, read-out: Minimum Inhibitory Concentration, Ec
[16] = 48 h, pH 8.2, read-out: Minimum Inhibitory Concentration, Ec
[17] = 48 h, pH 6.8, read-out: Minimum Inhibitory Concentration, Ea
[18] = 48 h, pH 8.2, read-out: Minimum Inhibitory Concentration, Ea
[19] = 48 h, pH 6.8, read-out: Minimum Inhibitory Concentration, Pv
[20] = 48 h, pH 8.2, read-out: Minimum Inhibitory Concentration, Pv
[21] = 48 h, pH 8.2, read-out: Minimum Inhibitory Concentration, Kp
[22] = pH 6.8, nutrient agar, 30° C., 48 hours, read-out: Minimum Inhibitory Concentration, Kp
[23] = pH 5.5, malt yeast agar, 30° C., 72 hours for fungi, read-out: Minimum Inhibitory Concentration, Tv
[24] = pH 5.5, malt yeast agar, 30° C., 72 hours for fungi, read-out: Minimum Inhibitory Concentration, Fo
[25] = pH 5.5, malt yeast agar, 30° C., 72 hours for fungi, read-out: Minimum Inhibitory Concentration, PC
[26] = 48 h, pH 6.8, read-out: Minimum Inhibitory Concentration, PRD
[27] = 48 h, pH 8.2, read-out: Minimum Inhibitory Concentration, PRD
[28] = 48 h, pH 8.2, read-out: Minimum Inhibitory Concentration, Bs
[29] = pH 5.5, malt yeast agar, 30° C., read-out: Minimum Inhibitory Concentration, Ap
[30] = 48 h, pH 5.5, read-out: Minimum Inhibitory Concentration, Ca
[31] = pH 5.5, malt yeast agar, 30° C., 72 hours for fungi, read-out: Minimum Inhibitory Concentration, An
[32] = 72 h, pH 5.5, read-out: Minimum Inhibitory Concentration, Tv
[33] = 72 h, pH 5.5, read-out: Minimum Inhibitory Concentration, PC
[34] = pH 6.8, nutrient agar, 30° C., 48 hours, read-out: Minimum Inhibitory Concentration, Bs
[35] = pH 8.2, nutrient agar, 30° C., 48 hours, read-out: Minimum Inhibitory Concentration, Bs
[36] = pH 8.2, nutrient agar, 30° C., 48 hours, read-out: Minimum Inhibitory Concentration, Ec
[37] = pH 6.8, nutrient agar, 30° C., 48 hours, read-out: Minimum Inhibitory Concentration, PRD
[38] = pH 8.2, nutrient agar, 30° C., 48 hours, read-out: Minimum Inhibitory Concentration, SC
[39] = pH 8.2, nutrient agar, 30° C., 48 hours, read-out: Minimum Inhibitory Concentration, Sa

Structure (SMILES) | MIC ([1]; pH 6.8, nutrient agar) [mg/L] | MIC ([1]; pH 8.2, nutrient agar) [mg/L] | MIC [3, 10] [mg/L] | MIC [3, 11] [mg/L] | MIC (Candida albicans (Ca); [12]) [mg/L] | MIC [4, 13] [mg/L] | MIC [4, 14] [mg/L] | MIC (Escherichia coli (Ec); [15]) [mg/L] | MIC [5, 17] [mg/L] | MIC [5, 18] [mg/L] | MIC (Proteus vulgaris (Pv); [19]) [mg/L] | MIC (Proteus vulgaris (Pv); [20]) [mg/L] | MIC [6, 21] [mg/L] | MIC [6, 22] [mg/L] | MIC (Fusarium oxysporum (Fo); [24]) [mg/L] | MIC [8] [mg/L] | MIC [9, 27] [mg/L] | MIC [2, 29] [mg/L] | MIC (Aspergillus niger (An); [31]) [mg/L] | MIC (Bacillus subtilis (Bs); [34]) [mg/L] | further results
CS(=O)(=O)c1ccc(-c2nsnc2SCSC#N)cc1 [Example XXV, 4-(4-Methylsulfonylphenyl)-3-thiocyanatomethylthio-1,2,5-thiadiazole] | 500 (≈ 1460 µM) | > 500 | 500 (≈ 1460 µM) | > 500 | 500 (≈ 1460 µM) | 500 (≈ 1460 µM) | 500 (≈ 1460 µM) | 500 (≈ 1460 µM) | 500 (≈ 1460 µM) | > 500 | 500 (≈ 1460 µM) | > 500 | > 500 | 500 (≈ 1460 µM) | > 500 | 500 (≈ 1460 µM) | > 500 | – | – | – | MIC ([2]; pH 5.5, read-out: Minimum Inhibitory Concentration, Ap): 250 mg/L (≈ 728 µM); MIC (Escherichia coli (Ec); [16]): 500 mg/L (≈ 1460 µM); MIC (Aspergillus niger (An); 72 h, pH 5.5, read-out: Minimum Inhibitory Concentration, An): 250 mg/L (≈ 728 µM); MIC (Trichoderma viride (Tv); [23]): > 500 mg/L; MIC [7, 25]: 9 mg/L (≈ 26.2 µM); MIC [9, 26]: 500 mg/L (≈ 1460 µM); MIC (Bacillus subtilis (Bs); 48 h, pH 6.8, read-out: Minimum Inhibitory Concentration, Bs): 500 mg/L (≈ 1460 µM); MIC (Bacillus subtilis (Bs); [28]): 500 mg/L (≈ 1460 µM)
N#CSc1nsnc1-c1cccs1 [Example XIV, 4-(2-Thiophene)-3-thiocyanato-1,2,5-thiadiazole] | 500 (≈ 2220 µM) | 500 (≈ 2220 µM) | – | 500 (≈ 2220 µM) | – | 500 (≈ 2220 µM) | 25 (≈ 111 µM) | 50 (≈ 222 µM) | – | 500 (≈ 2220 µM) | – | 500 (≈ 2220 µM) | 500 (≈ 2220 µM) | 25 (≈ 111 µM) | < 10 | < 10 | 500 (≈ 2220 µM) | < 10 | < 10 | 25 (≈ 111 µM) | MIC ([3]; pH 6.8, nutrient agar, 30° C., 48 hours, read-out: Minimum Inhibitory Concentration, SC): 50 mg/L (≈ 222 µM); MIC (Candida albicans (Ca); [30]): 25 mg/L (≈ 111 µM); MIC (Escherichia coli (Ec); [16]): 500 mg/L (≈ 2220 µM); MIC ([5]; pH 6.8, nutrient agar, 30° C., 48 hours, read-out: Minimum Inhibitory Concentration, Ea): 100 mg/L (≈ 444 µM); MIC (Proteus vulgaris (Pv); pH 6.8, nutrient agar, 30° C., 48 hours, read-out: Minimum Inhibitory Concentration, Pv): 50 mg/L (≈ 222 µM); MIC (Trichoderma viride (Tv); [32]): < 10 mg/L; MIC [7, 33]: < 10 mg/L; MIC [9, 26]: 500 mg/L (≈ 2220 µM); MIC (Bacillus subtilis (Bs); [35]): 100 mg/L (≈ 444 µM)
N#CSCSc1nsnc1-c1ccc(F)cc1 [Example XXI, 4-(4-Fluorophenyl)-3-thiocyanatomethylthio-1,2,5-thiadiazole] | – | > 500 | 500 (≈ 1760 µM) | > 500 | 9 (≈ 31.8 µM) | > 500 | 500 (≈ 1760 µM) | 500 (≈ 1760 µM) | 500 (≈ 1760 µM) | > 500 | 500 (≈ 1760 µM) | > 500 | > 500 | 500 (≈ 1760 µM) | 9 (≈ 31.8 µM) | 9 (≈ 31.8 µM) | > 500 | 9 (≈ 31.8 µM) | 9 (≈ 31.8 µM) | 9 (≈ 31.8 µM) | MIC (Escherichia coli (Ec); [36]): 250 mg/L (≈ 882 µM); MIC (Trichoderma viride (Tv); [23]): 25 mg/L (≈ 88.2 µM); MIC [7, 25]: 9 mg/L (≈ 31.8 µM); MIC [9, 37]: 250 mg/L (≈ 882 µM); MIC (Bacillus subtilis (Bs); [35]): 100 mg/L (≈ 353 µM)
Cc1ccc(-c2nsnc2SCSC#N)cc1 [Example XXVII, 4-(4-Methylphenyl)-3-thiocyanatomethylthio-1,2,5-thiadiazole] | 500 (≈ 1790 µM) | 500 (≈ 1790 µM) | 500 (≈ 1790 µM) | – | – | – | 250 (≈ 895 µM) | 500 (≈ 1790 µM) | 500 (≈ 1790 µM) | 500 (≈ 1790 µM) | 500 (≈ 1790 µM) | 500 (≈ 1790 µM) | 500 (≈ 1790 µM) | 500 (≈ 1790 µM) | – | 9 (≈ 32.2 µM) | 500 (≈ 1790 µM) | 9 (≈ 32.2 µM) | 9 (≈ 32.2 µM) | 25 (≈ 89.5 µM) | MIC [3, 38]: 250 mg/L (≈ 895 µM); MIC (Candida albicans (Ca); [30]): 50 mg/L (≈ 179 µM); MIC [4, 39]: 25 mg/L (≈ 89.5 µM); MIC (Escherichia coli (Ec); [16]): 500 mg/L (≈ 1790 µM); MIC (Trichoderma viride (Tv); [32]): 100 mg/L (≈ 358 µM); MIC (Fusarium oxysporum (Fo); 72 h, pH 5.5, read-out: Minimum Inhibitory Concentration, Fo): 25 mg/L (≈ 89.5 µM); MIC [7, 25]: 9 mg/L (≈ 32.2 µM); MIC [9, 37]: 250 mg/L (≈ 895 µM); MIC (Bacillus subtilis (Bs); [28]): 25 mg/L (≈ 89.5 µM)
N#CSc1nsnc1-c1ccc([N+](=O)[O-])cc1 [Example XIII, 4-(4-nitrophenyl)-3-thiocyanato-1,2,5-thiadiazole] | 500 (≈ 1890 µM) | > 100 | 500 (≈ 1890 µM) | – | < 10 | – | – | 500 (≈ 1890 µM) | 500 (≈ 1890 µM) | – | 500 (≈ 1890 µM) | – | – | 100 (≈ 378 µM) | < 10 | < 10 | – | < 10 | < 10 | 25 (≈ 94.6 µM) | MIC [3, 38]: > 100 mg/L; MIC ([4]; 48 h, pH 6.8, read-out: Minimum Inhibitory Concentration, Sa): 50 mg/L (≈ 189 µM); MIC [4, 39]: > 100 mg/L; MIC (Escherichia coli (Ec); [36]): > 100 mg/L; MIC ([5]; pH 8.2, nutrient agar, 30° C., 48 hours, read-out: Minimum Inhibitory Concentration, Ea): > 100 mg/L; MIC (Proteus vulgaris (Pv); pH 8.2, nutrient agar, 30° C., 48 hours, read-out: Minimum Inhibitory Concentration, Pv): > 100 mg/L; MIC ([6]; pH 8.2, nutrient agar, 30° C., 48 hours, read-out: Minimum Inhibitory Concentration, Kp): > 100 mg/L; MIC (Trichoderma viride (Tv); [32]): < 10 mg/L; MIC [7, 33]: < 10 mg/L; MIC [9, 26]: 500 mg/L (≈ 1890 µM); MIC ([9]; pH 8.2, nutrient agar, 30° C., 48 hours, read-out: Minimum Inhibitory Concentration, PRD): > 100 mg/L; MIC (Bacillus subtilis (Bs); [35]): > 100 mg/L
